In patent publication US20240245703A1, “TOPICAL APPLICATION OF AGENTS TO REDUCE SUN SENSITIVITY AND IMPROVE TOPICAL PHOTODYNAMIC THERAPY” (Wright State University, priority 2021, published 2024):

How the values were obtained:
UVB-induced MVP release = experiment: MVP release in skin and plasma of wild-type and XPA KO mice after UVB or topical agonists; assay type: in vivo; conditions: WT and XPA KO mice, 5 kJ/m^2 UVB, 500 μM imipramine topical immediately post-UVB, 4 h
Excerpt: The enzyme aSMase is also known to generate MVP in response to many stressors such as UVB via activation of PAFR. Yet other stimuli such as in response to a phorbol ester (TPA) are independent of the PAFR. Therefore, administration of inhibitors of aSMase may block UVB-MVP release in XPA deficient model, as well as in other situations where MVP release is independent of the PAFR.
Groups of 8-13 wild-type (C57BL/6) and XPA KO mice received no treatment (NT) or 1 KJ/m^2, 2.5 kJ/m^2, or 5 KJ/m^2 of UVB to their dorsal back skin. In some experiments, mice were treated with topical application of the PAFR agonist carbamoyl-PAF (CPAF; 50 μL of 100 μM) or the phorbol ester 12-O-tetradecanoylphorbol-13-acetate (TPA; 50 μL of 100 μM) in 90% ethanol: 10% DMSO vehicle. For the data in FIG. 2, triplicate skin biopsies were obtained and weighed four hours post-treatment, and MVP was measured. […] For the data in FIG. 3, plasma was obtained and MVP was measured four hours post-treatment. […] Data are the mean±S.E. fold change of MVP count. Groups were compared using One-Way ANOVA and Tukey's post-hoc test. Differences in samples were considered significant if the P value was less than 0.05. […]
For the data shown in FIG. 4, triplicate skin biopsies were obtained and MVP was measured. For the data shown in FIG. 5, plasma was obtained and MVP was measured. […]

UVB-induced erythema = experiment: UVB-induced skin erythema (Mexameter) in wild-type and XPA KO mice; assay type: in vivo; conditions: WT and XPA KO mice, 5 kJ/m^2 UVB, 100 μL 500 μM topical immediately after, 4 h; effect most noted in XPA KO
Protocol: Erythema was measured by a Mexameter® device (Courage+Khazaka electronic GmbH, Cologne, Germany) before treatment and after 4 hours of treatment. […] UVB-induced skin inflammation involves many cytokines including interleukin-6 (IL-6) and tumor necrosis factor-alpha (TNFα).
Groups of 6-8 mice underwent erythema measurements with a Mexameter® device before irradiation with various fluences (1.0, 2.5, and 5.0 kJ/m^2) of UVB or no UVB (sham), and four hours later erythema was measured to determine the cutaneous erythema and cytokine responses of UVB irradiation on wild-type vs XPA KO mice. Similarly, triplicate skin biopsies were obtained and mRNA isolated, and quantitative reverse transcription polymerase chain reaction (qRT-PCR) used to quantify mRNA levels of cytokines TNF ? and IL-6. The housekeeping gene GAPDH was used as control. […] The data is shown as the mean±S.E. of fold change in baseline erythema levels. * Denotes statistically significant (P<0.05) differences between UVB- and sham-treated mice. #Denotes statistically significant (P<0.05) differences between XPA KO and wild-type erythema responses.
The data is shown as the mean±S.E. of fold change in baseline erythema levels. * Denotes statistically significant (P<0.05) differences between UVB- and sham-treated mice

TNFα and IL-6 mRNA = experiment: UVB-induced cytokine mRNA (qRT-PCR) in mouse skin biopsies; assay type: in vivo; conditions: mice, topical post-UVB, skin biopsies 4 h
human skin explants = experiment: UVB-induced MVP formation in human skin explants ex vivo; assay type: cell-based; conditions: 4 h
Excerpt: Four hours post-UVB triplicate skin biopsies were obtained and MVP quantified.

PDT-induced MVP release = PDT-induced MVP release in skin and plasma of mice; assay type: in vivo; conditions: wild-type mice, PDT 20 J/cm^2 blue light, 100 μl of 5 mM topical immediately after, 4 h
Protocol: Next, the role of PAF and aSMase in PDT-induced MVP release was assessed. […] Next, the ability of topical PDT to generate MVP in vivo in mice, and the role of aSMase in this process, was determined. […] Two approaches were used to determine if PDT-induced MVP involved aSMase.
The role of aSMase in PDT-mediated MVP release was evaluated in a murine system. For the data shown in FIG. 18, wild-type mice were treated with either sham, 100 μl of 5 mM IMIP, or 90% polyethylene glycol: 10% DMSO vehicle, or 1 μM TPA (as a positive control for MVP release), or PDT using 20 J/cm^2 blue light. Immediately following PDT, the treated areas were given vehicle or imipramine. At 4 hours post-treatment, the mice were euthanized and MVP were measured from duplicate 6-mm punch biopsies and plasma. The data are mean±SD fold increase in MVP normalized to tissue weight/plasma volume. * Denotes statistically significant (P<0.05) changes from sham; #statistically significant (P<0.05) changes from comparator denoted by line by two-way ANOVA; NS not statistically significant.
To confirm the role of aSMase in PDT-induced MVP generation, PDT effects were evaluated in the absence of aSMase was evaluated in a murine system. For the data shown in FIG. 19, wild-type or aSMase-deficient (Smpd1−/−) mice underwent sham or PDT using 20 J/cm^2 blue light. At 4 hours post-treatment, the mice were euthanized and MVP were measured from duplicate 6-mm punch biopsies and plasma. The data are mean±SD fold increase in MVP normalized to tissue weight/plasma volume. * Denotes statistically significant (P<0.05) changes from sham; NS not statistically significant.

HaCaT XPA KO = experiment: UVB-induced MVP release in HaCaT XPA deficient cells; assay type: cell-based, human; conditions: HaCaT XPA KO cell line
Protocol: HaCaT cells and HaCaT XPA deficient cells received no treatment (NT) or 1 KJ/m^2, 2.5 KJ/m^2, or 5 KJ/m^2 UVB radiation. After 4 hours, the supernatant was removed and the MVP concentration was measured. The numbers of MVP shown in FIG. 1 were normalized to cell count and NT. Data in FIG. 1 show the mean+S.E. fold change of at least three experiments. Groups were compared using One-Way ANOVA. (P<0.01) was considered statistically significant. * denotes changes between NT and UVB. #denotes changes between HaCaT and HaCaT XPA deficient cells.

[1] = hairless mice, effect of propylene glycol; cited from earlier work

## CN(C)CCCN1c2ccccc2CCc2ccccc21 [Imipramine]
UVB-induced MVP release
  UVB-induced MVP in plasma: blocked MVP accumulation
  UVB-induced MVP in skin: blocked MVP accumulation in skin
UVB-induced erythema
  UVB-induced erythema response: blocked the erythema responses
TNFα and IL-6 mRNA
  UVB-induced IL-6 mRNA: blocks IL-6 mRNA responses
  UVB-induced TNFα mRNA: blocks TNFα mRNA responses
Human skin explants; 100 μL 500 μM applied 30 minutes before 2,500 J/m^2 UVB
  UVB-induced MVP formation, pre-treatment: blocks UVB-induced MVP formation
Human skin explants; 100 μL 500 μM applied immediately after 2,500 J/m^2 UVB
  UVB-induced MVP formation, post-treatment: blocks UVB-induced MVP formation
PDT-induced MVP release
  PDT-induced MVP release in skin and plasma: blocked MVP release
HaCaT XPA KO
  increased MVP generation of XPA deficient keratinocytes: blocked by imipramine
[1]
  absorption with propylene glycol: enhances absorption
